Laboratory results from US20250000876A1, “Novel therapeutic agent for inflammatory disease” (Gachon University of Industry-Academic cooperation …, priority 2020, published 2025).

Key:
[1] = Hydrodynamic size distribution, potential and polydispersity index (Zetasizer Nano); type: physicochemical
[2] = H2O2 decomposition and O2 production analysis; conditions: after 24 hours, pH 7.4
Experimental: Then, 50 μl of the solution was added to a solution of 100 μL of Ti (SO4)2 containing 1.33 mL of 24% Ti(SO4)2 and 8.33 mL of H2SO4 in 50 mL of deionized water after 24 hours. After the reaction was completed, the absorbance of the solution was measured at 405 nm to evaluate the H2O2 concentration.
We performed H2O2-scavenging effect of AuNPs and intracellular ROS analysis before pro-inflammatory cytokine secretion assay. Specifically, after treatment with Triamcinolone and AuNPs under physiological conditions (pH 7.4), concentration of H2O2 was analyzed.

[3] = test system: M1-activated FLS; assay: Cytokine expression in FLSs activated with M1 macrophage conditioned medium; type: cell-based, human
Experimental: (§1) To measure cytokine expression, RT-PCR (CFX 384, Bio-Rad, Hercules, CA, USA) was performed according to the manufacturer's protocol. […] Then, total RNA was isolated from cells (5×10^5 cells/well in a total of 6-well plates) using TRIzol (15596018, Thermo Fisher Scientific) and first strand complementary DNA (cDNA) using RT premix (Promega) was synthesized. Reverse transcription conditions were carried out at 45° C. for 60 minutes and at 95° C. for 5 minutes. Briefly, in each final reaction tube, 2 μL of cDNA (1 μg), 1 μL of sense and antisense primer solutions (0.4 μM), 12.5 μL of SYBR Premix Ex Taq (Takara Bio Inc.) and 9.5 μL of dH2O. The cycle threshold (Ct) value was calculated using the CFX96 Real-Time PCR Detection System (Bio-Rad) software, and the comparative Ct method (2ΔΔCt model) was used to calculate the relative fold change of gene expression. It was then normalized to mean GAPDH expression.
Recently, the role of macrophages in inflamed synovial membranes has been of great interest due to the inflammatory effects of these cells during pathogens of RA and OA in joints (A. Kennedy et al., Front. Immunol., 2:52, 2011). The present inventors therefore investigated the stimulation of FLS pro-inflammatory activity by activated M1 macrophage cytokines (from LPS-treated J774 cells to conditioned medium).

[4] = test system: macrophages treated with TNF-α-activated FLSs medium; assay: Macrophage repolarization after TNF-α-activated FLSs medium; type: cell-based
Experimental: as §1
Macrophages of the synovium can stimulate pro-inflammatory FLSs activity by infiltrating inflamed tissues and increasing pro-inflammatory cytokine levels (M. Asif Amin et al., Semin. Immunopathol., 39 (4): 385-393, 2017). For this reason, modulating macrophage differentiation (ie, repolarization) is important in alleviating arthritis disease (J. Kim et al., ACS Nano, 13 (3): 3206-3217, 2019).

[5] = test system: CIA-induced mice; assay: Collagen-induced arthritis (CIA) model; type: in vivo, DBA/1 mice; conditions: for paw edema and paw score: ankle joint, 48 days
Experimental: DBA/1 mice (male, 4-6 weeks old, body weight 20-25 g) were purchased from Orient Bio (Seoul, Korea) and the mice were subjected to a 12-hour light/dark cycle (lit at 6:30 AM) for 7-14 days. They were placed in a specific pathogen-free environment with temperature and humidity controlled and acclimatized before the experiment. All animal experiments were performed according to the Gachon University Laboratory Animal Care and Use Guide. […] Animals with […] arthritis were randomly assigned to 6 groups (n=6) after the first signs of inflammation were observed on day 27.
The status of RA was assessed visually by grading paw swelling according to the following criteria: 0, no swelling; 1, inflammation and swelling in one toe; 2, more than one toe, but inflammation and swelling throughout the foot; 3, moderate swelling of the entire foot; 4, Severe erythema and swelling of the entire foot and ankle (H. E. Scales, et al., Rheumatology (Oxford) 55 (3): 564-572, 2016). A total score of four paws was recorded for each mouse as the arthritis index. […] Each treatment group was administered twice weekly for 3 weeks, 2 mg/kg or 5 mg/kg condition, and the arthritis index of each group was recorded over time. After 3 weeks of treatment, mice were sacrificed, and limbs were collected and histological analysis was performed.
Histopathology was evaluated to determine the characteristics of RA including macrophage phenotype, synovitis and cartilage destruction. Specifically, on day 48, the mice were sacrificed and the ankle joint was recovered. The […] was fixed in 4% paraformaldehyde at 4° C. for 3 days, transferred to a descaling solution (Sigma), and left on an orbital shaker. Then, the tissue was decalcified at room temperature for 14 days, and the non-calcified ankle joint was embedded in paraffin and then cut into 3 μm using a microtome. For immunofluorescence histochemistry, tissue sections were dewaxed and TNF-α (Abcam, ab1793), IL-1β (Abcam, ab9722), IL-6 (Abcam, ab7737), INF-γ (Novus Biotech, NBP1), CD86 (Invitrogen, 13-0862-82), and Dectin-1 (Abcam, ab140039) were stained with primary antibodies. The secondary antibodies used in the present invention are goat anti-rat Alexa Fluor 488 (Abcam) for INF-γ, goat anti-mouse Alexa Fluor 488 (Abcam) for TNF-α, goat anti-mouse Alexa Fluor 568 for CD86 (Abcam), goat anti-rabbit Alexa Fluor 488 (Abcam) for IL-1β and IL-6 and goat anti-rabbit Alexa Fluor 568 (Abcam) for Dectin-1. The tissue sections were then stained with DAPI mounting solution and observed using a confocal fluorescence microscope (LSM700, Carl Zeiss) and EVOS M7000, Invitrogen. Fluorescence intensity was also quantified using ImageJ, Zen Lite (Zeiss) and Celleste (Invitrogen).

electric potential caused by the surface charge ([1]; Example 9, Dex series)	hydrodynamic size ([1]; Example 9, Dex series) [nm]	electric potential caused by the surface charge ([1]; Example 1, Triam series)	hydrodynamic size ([1]; Example 1, Triam series) [nm]	Structure (SMILES)	reduction of H2O2 concentration [2]	level of FLSs pro-inflammatory cytokines (TNF-α, IL-1β and IL-6) ([3]; FLSs treated with M1 medium)	anti-inflammatory mRNA (IL-4, IL-10 and Arg-1) synthesis ([3]; M1-activated FLS)	M2 response (IL-4, Arg-1 and IL-10 expression) [4]	inflammatory marker levels (TNF-α, IL-1β and IL-6 expression) [4]	level of CD86 (M1 marker) in ankle joint ([5]; 2 mg/kg)	level of Dectin-1 (M2 marker) in ankle joint ([5]; 2 mg/kg)	paw edema and paw score ([5]; 2 mg/kg)	level of CD86 (M1 marker) in ankle joint ([5]; 5 mg/kg)	level of Dectin-1 (M2 marker) in ankle joint ([5]; 5 mg/kg)	paw edema and paw score ([5]; 5 mg/kg)
neutrally charged	125			C[C@@H]1C[C@H]2[C@@H]3CCC4=CC(=O)C=C[C@]4(C)[C@@]3(F)[C@@H](O)C[C@]2(C)[C@@]1(O)C(=O)CO [free Dex, dexamethasone]											
		approached neutral charges	75	C[C@]12C=CC(=O)C=C1CC[C@H]1[C@@H]3C[C@@H](O)[C@](O)(C(=O)CO)[C@@]3(C)C[C@H](O)[C@@]12F [Triam, Triamcinolone]	about 48%	effectively reduced	did not induce anti-inflammatory cytokine release	did not induce noticeable M2 marker expression	decreased significantly	reduced the level of the M1 marker	did not sufficiently restore the level of the M2 marker	did not show sufficient effect	reduced the level of the M1 marker	did not sufficiently restore the level of the M2 marker	did not show sufficient effect
